From patent publication US9884063B2, “Amido-substituted azole compounds” (Bayer Pharma Aktiengesellschaft, priority 2014, dated 2018)

What was measured:
TNKS1 = molecular target: T1, TNKS1 (Homo sapiens, UniProt O95271); test: Modified TNKS1 Assay 3 (BPS kit #80573, biotin-NAD+, 96 well); type: biochemical; conditions: human TNKS1, BPS kit #80573, 96 well
T1 sequence (O95271 1-1327): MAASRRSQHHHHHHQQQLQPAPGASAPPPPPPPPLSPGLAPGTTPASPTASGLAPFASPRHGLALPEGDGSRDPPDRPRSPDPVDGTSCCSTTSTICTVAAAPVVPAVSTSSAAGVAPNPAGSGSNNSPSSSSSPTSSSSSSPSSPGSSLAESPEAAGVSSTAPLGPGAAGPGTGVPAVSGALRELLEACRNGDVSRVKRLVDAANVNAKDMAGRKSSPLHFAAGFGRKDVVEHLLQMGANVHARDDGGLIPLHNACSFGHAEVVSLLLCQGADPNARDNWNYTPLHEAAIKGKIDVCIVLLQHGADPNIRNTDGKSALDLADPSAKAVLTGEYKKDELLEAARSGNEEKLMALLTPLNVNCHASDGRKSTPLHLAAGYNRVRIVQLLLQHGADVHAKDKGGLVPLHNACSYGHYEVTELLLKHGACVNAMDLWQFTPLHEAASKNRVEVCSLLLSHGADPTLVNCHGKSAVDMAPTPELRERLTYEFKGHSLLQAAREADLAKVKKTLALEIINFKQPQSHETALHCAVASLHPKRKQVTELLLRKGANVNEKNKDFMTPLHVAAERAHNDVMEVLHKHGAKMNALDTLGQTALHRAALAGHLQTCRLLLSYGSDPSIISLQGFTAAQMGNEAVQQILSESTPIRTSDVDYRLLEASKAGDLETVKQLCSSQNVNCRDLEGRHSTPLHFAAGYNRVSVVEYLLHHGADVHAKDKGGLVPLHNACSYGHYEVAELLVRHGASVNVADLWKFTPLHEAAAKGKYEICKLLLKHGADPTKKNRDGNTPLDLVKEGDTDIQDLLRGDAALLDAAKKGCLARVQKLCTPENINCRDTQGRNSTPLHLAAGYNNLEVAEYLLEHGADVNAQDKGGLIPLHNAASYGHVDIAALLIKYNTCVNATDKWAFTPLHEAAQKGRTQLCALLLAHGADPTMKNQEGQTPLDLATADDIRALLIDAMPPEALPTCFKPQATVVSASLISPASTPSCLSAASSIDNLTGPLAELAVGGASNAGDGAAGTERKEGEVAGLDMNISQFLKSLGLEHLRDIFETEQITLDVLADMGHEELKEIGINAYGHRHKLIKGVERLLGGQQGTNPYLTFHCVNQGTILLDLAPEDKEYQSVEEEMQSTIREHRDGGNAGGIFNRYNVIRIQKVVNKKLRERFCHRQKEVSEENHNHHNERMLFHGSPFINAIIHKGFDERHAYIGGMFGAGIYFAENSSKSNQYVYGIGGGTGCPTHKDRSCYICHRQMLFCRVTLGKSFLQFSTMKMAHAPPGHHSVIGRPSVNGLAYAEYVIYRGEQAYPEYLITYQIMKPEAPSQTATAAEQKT
Outline: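 Chemiluminescent assay of TNKS1-catalysed ribosylation of a protein substrate with biotin-labelled NAD+, detected via streptavidin-HRP; run per kit protocol. Inhibition lowers the signal, and IC50 is the compound concentration halving the normalised readout.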

[1] = tested on: HEK293 FOP control reporter cell line; test: HEK293 FOP Assay (FOP control vector luciferase reporter); type: cell-based; conditions: Homo sapiens; HEK293 FOP control reporter cell line, 16 hours incubation, compound dilution series 50 μM to 15 nM
Outline: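 Compound series 50 μM to 15 nM, 3.16-fold steps, were diluted in CAFTY buffer (pH 7.4, 2 mM Ca2+, 0.01% BSA) and tested alongside the TOP reporter line. Human Wnt-3a was added at 2500–5 ng/ml in two-fold steps. The control HEK293 line stably holds an FOP vector whose TCF elements are randomized and non-functional.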

IC50 (TNKS1): 0.2 µM
SMILES: O=C(Nc1ccc(NC(=O)c2nc[nH]c2C(=O)NCCN2CCOCC2)cc1)c1ccc(F)cc1Cl [Example 227, N^4-{4-[(2-chloro-4-fluorobenzoyl)amino]phenyl}-N^5-[2-(morpholin-4-yl)ethyl]-1H-imidazole-4,5-dicarboxamide]
IC50 [1]: 23 µM
